In ChEMBL document CHEMBL2010711, “Synthesis and comparative evaluation of 4-oxa- and 4-aza-podophyllotoxins as antiproliferative microtubule destabilizing agents” (Bioorg Med Chem Lett, 2012):
The source made the active and inactive calls.

Legend:
Paracentrotus lividus [1] = assay: Microtubule destabilizing activity in Paracentrotus lividus embryo assessed as concentration required to cause 100% embryo spinning after 15 mins to 20 hrs; type: functional
Paracentrotus lividus [2] = assay: Microtubule destabilizing activity in Paracentrotus lividus embryo assessed as embryo spinning at 2 fold less effective threshold concentration after 15 mins to 20 hrs; type: functional, organism-based
Paracentrotus lividus [3] = assay: Antimitotic activity against Paracentrotus lividus embryo assessed as concentration required to cause 100% cleavage alteration after 2.5 to 6 hrs; type: functional
Paracentrotus lividus [4] = assay: Antimitotic activity against Paracentrotus lividus embryo assessed as cleavage alteration at 2 fold less effective threshold concentration after 2.5 to 6 hrs; type: functional, organism-based
Paracentrotus lividus [5] = assay: Antimitotic activity against Paracentrotus lividus embryo assessed as concentration required to cause 100% cleavage arrest after 2.5 to 6 hrs; type: functional
Paracentrotus lividus [6] = assay: Antimitotic activity against Paracentrotus lividus embryo assessed as cleavage arrest at 2 fold less effective threshold concentration after 2.5 to 6 hrs; type: functional, organism-based
SK-MEL-28 = assay: Cytotoxicity against human SK-MEL-28 cells after 48 hrs by trypan blue dye exclusion assay; type: functional; settings: SK-MEL-28, 48 h
CCRF-CEM = assay: Cytotoxicity against human CCRF-CEM cells after 48 hrs by trypan blue dye exclusion assay; type: functional
A498 = assay: Cytotoxicity against human A498 cells after 48 hrs by trypan blue dye exclusion assay; type: functional; settings: A498, 48 h
LOX IMVI = assay: Cytotoxicity against human LOXIMVI cells after 48 hrs by trypan blue dye exclusion assay; type: functional
HCC 2998 = assay: Cytotoxicity against human HCC2998 cells after 48 hrs by trypan blue dye exclusion assay; type: functional; settings: HCC 2998, 48 h
MCF7 = assay: Cytotoxicity against human MCF7 cells after 48 hrs by trypan blue dye exclusion assay; type: functional; settings: MCF7, 48 h
COLO 205 = assay: Cytotoxicity against human COLO205 cells after 48 hrs by trypan blue dye exclusion assay; type: functional; settings: COLO 205, 48 h
SW-620 = assay: Cytotoxicity against human SW620 cells after 48 hrs by trypan blue dye exclusion assay; type: functional; settings: SW-620, 48 h
SNB-19 = assay: Cytotoxicity against human SNB19 cells after 48 hrs by trypan blue dye exclusion assay; type: functional; settings: SNB-19, 48 h
NCI-H23 = assay: Cytotoxicity against human NCI-H23 cells after 48 hrs by trypan blue dye exclusion assay; type: functional; settings: NCI-H23, 48 h
HCT-15 = assay: Cytotoxicity against human HCT15 cells after 48 hrs by trypan blue dye exclusion assay; type: functional; settings: HCT-15, 48 h
OVCAR-5 = assay: Cytotoxicity against human OVCAR5 cells after 48 hrs by trypan blue dye exclusion assay; type: functional; settings: OVCAR-5, 48 h
NCI/ADR-RES = assay: Cytotoxicity against human NCI/ADR-RES cells after 48 hrs by trypan blue dye exclusion assay; type: functional
OVCAR-4 = assay: Cytotoxicity against human OVCAR4 cells after 48 hrs by trypan blue dye exclusion assay; type: functional; settings: OVCAR-4, 48 h
BT-549 = assay: Cytotoxicity against human BT549 cells after 48 hrs by trypan blue dye exclusion assay; type: functional; settings: BT-549, 48 h
ACHN = assay: Cytotoxicity against human ACHN cells after 48 hrs by trypan blue dye exclusion assay; type: functional
RPMI-8226 = assay: Cytotoxicity against human RPMI8226 cells after 48 hrs by trypan blue dye exclusion assay; type: functional; settings: RPMI-8226, 48 h
U-251 = assay: Cytotoxicity against human U251 cells after 48 hrs by trypan blue dye exclusion assay; type: functional; settings: U-251, 48 h
SK-MEL-2 = assay: Cytotoxicity against human SK-MEL-2 cells after 48 hrs by trypan blue dye exclusion assay; type: functional; settings: SK-MEL-2, 48 h
HCT-116 = assay: Cytotoxicity against human HCT116 cells after 48 hrs by trypan blue dye exclusion assay; type: functional; settings: HCT-116, 48 h
SN12C = assay: Cytotoxicity against human SN12C cells after 48 hrs by trypan blue dye exclusion assay; type: functional
SF-295 = assay: Cytotoxicity against human SF295 cells after 48 hrs by trypan blue dye exclusion assay; type: functional; settings: SF-295, 48 h
HL-60(TB) = assay: Cytotoxicity against human HL-60(TB) cells after 48 hrs by trypan blue dye exclusion assay; type: functional; settings: HL-60, 48 h
SF-539 = assay: Cytotoxicity against human SF539 cells after 48 hrs by trypan blue dye exclusion assay; type: functional; settings: SF-539, 48 h
SR = assay: Cytotoxicity against human SR cells after 48 hrs by trypan blue dye exclusion assay; type: functional
UO-31 = assay: Cytotoxicity against human UO31 cells after 48 hrs by trypan blue dye exclusion assay; type: functional; settings: UO-31, 48 h
SK-OV-3 = assay: Cytotoxicity against human SKOV3 cells after 48 hrs by trypan blue dye exclusion assay; type: functional; settings: SK-OV-3, 48 h
NCI-H522 = assay: Cytotoxicity against human NCI-H522 cells after 48 hrs by trypan blue dye exclusion assay; type: functional; settings: NCI-H522, 48 h
MOLT-4 = assay: Cytotoxicity against human MOLT4 cells after 48 hrs by trypan blue dye exclusion assay; type: functional; settings: MOLT-4, 48 h
MDA-MB-231 = assay: Cytotoxicity against human MDA-MB-231 cells after 48 hrs by trypan blue dye exclusion assay; type: functional; settings: MDA-MB-231, 48 h
A549 = assay: Cytotoxicity against human A549 cells after 48 hrs by trypan blue dye exclusion assay; type: functional; settings: A549, 48 h
PC-3 = assay: Cytotoxicity against human PC3 cells after 48 hrs by trypan blue dye exclusion assay; type: functional; settings: PC-3, 48 h
M14 = assay: Cytotoxicity against human M14 cells after 48 hrs by trypan blue dye exclusion assay; type: functional; settings: M14, 48 h
UACC-62 = assay: Cytotoxicity against human UACC62 cells after 48 hrs by trypan blue dye exclusion assay; type: functional; settings: UACC-62, 48 h
CAKI-1 = assay: Cytotoxicity against human CAKI-1 cells after 48 hrs by trypan blue dye exclusion assay; type: functional; settings: CAKI-1, 48 h
OVCAR-8 = assay: Cytotoxicity against human OVCAR8 cells after 48 hrs by trypan blue dye exclusion assay; type: functional; settings: OVCAR-8, 48 h
786-0 = assay: Cytotoxicity against human 786-0 cells after 48 hrs by trypan blue dye exclusion assay; type: functional; settings: 786-0, 48 h
EKVX = assay: Cytotoxicity against human EKVX cells after 48 hrs by trypan blue dye exclusion assay; type: functional
NCI-H226 = assay: Cytotoxicity against human NCI-H226 cells after 48 hrs by trypan blue dye exclusion assay; type: functional; settings: NCI-H226, 48 h
KM12 = assay: Cytotoxicity against human KM12 cells after 48 hrs by trypan blue dye exclusion assay; type: functional; settings: KM12, 48 h
SF-268 = assay: Cytotoxicity against human SF268 cells after 48 hrs by trypan blue dye exclusion assay; type: functional; settings: SF-268, 48 h
IGROV-1 = assay: Cytotoxicity against human IGROV1 cells after 48 hrs by trypan blue dye exclusion assay; type: functional; settings: IGROV-1, 48 h
MDA-MB-468 = assay: Cytotoxicity against human MDA-MB-468 cells after 48 hrs by trypan blue dye exclusion assay; type: functional; settings: MDA-MB-468, 48 h
RXF 393 = assay: Cytotoxicity against human RXF393 cells after 48 hrs by trypan blue dye exclusion assay; type: functional; settings: RXF 393, 48 h
MDA-MB-435 = assay: Cytotoxicity against human MDA-MB-435 cells after 48 hrs by trypan blue dye exclusion assay; type: functional; settings: MDA-MB-435, 48 h
NCI-H322M = assay: Cytotoxicity against human NCI-H322M cells after 48 hrs by trypan blue dye exclusion assay; type: functional
DU-145 = assay: Cytotoxicity against human DU145 cells after 48 hrs by trypan blue dye exclusion assay; type: functional; settings: DU-145, 48 h
[7] = Cytotoxicity against human Hs 578T cells after 48 hrs by trypan blue dye exclusion assay; type: functional
HT-29 = assay: Cytotoxicity against human HT-29 cells after 48 hrs by trypan blue dye exclusion assay; type: functional; settings: HT-29, 48 h
SNB-75 = assay: Cytotoxicity against human SNB75 cells after 48 hrs by trypan blue dye exclusion assay; type: functional; settings: SNB-75, 48 h
TK-10 = assay: Cytotoxicity against human TK10 cells after 48 hrs by trypan blue dye exclusion assay; type: functional; settings: TK-10, 48 h
NCI-H460 = assay: Cytotoxicity against human NCI-H460 cells after 48 hrs by trypan blue dye exclusion assay; type: functional; settings: NCI-H460, 48 h
HOP-92 = assay: Cytotoxicity against human HOP92 cells after 48 hrs by trypan blue dye exclusion assay; type: functional; settings: HOP-92, 48 h
OVCAR-3 = assay: Cytotoxicity against human OVCAR3 cells after 48 hrs by trypan blue dye exclusion assay; type: functional; settings: OVCAR-3, 48 h
SK-MEL-5 = assay: Cytotoxicity against human SK-MEL-5 cells after 48 hrs by trypan blue dye exclusion assay; type: functional; settings: SK-MEL-5, 48 h

COc1ccc2c(c1)NC1=C(C(=O)OC1)C2c1cc(OC)c2c(c1)OCCO2 (configuration not stated)
EC (Paracentrotus lividus [1]): 1000 nM
Activity (Paracentrotus lividus [2]): inactive
EC (Paracentrotus lividus [3]): 10 nM
Activity (Paracentrotus lividus [4]): inactive
EC (Paracentrotus lividus [5]): 50 nM
Activity (Paracentrotus lividus [6]): inactive

COc1ccc2c(c1)NC1=C(C(=O)OC1)C2c1cc(OC)c(OC)c(OC)c1 (configuration not stated)
EC (Paracentrotus lividus [1]): 500 nM
Activity (Paracentrotus lividus [2]): inactive
EC (Paracentrotus lividus [3]): 50 nM
Activity (Paracentrotus lividus [4]): inactive
EC (Paracentrotus lividus [5]): 500 nM
Activity (Paracentrotus lividus [6]): inactive

COc1ccc2c(c1)C(c1cc(OC)c(OC)c(OC)c1)C1=C(COC1=O)O2 (configuration not stated)
EC (Paracentrotus lividus [1]): 5000 nM
Activity (Paracentrotus lividus [2]): inactive
EC (Paracentrotus lividus [3]): 100 nM
Activity (Paracentrotus lividus [4]): inactive
EC (Paracentrotus lividus [5]): 2000 nM
Activity (Paracentrotus lividus [6]): inactive

COc1ccc2c(c1)OC1=C(C(=O)OC1)C2c1cc(OC)c2c(c1)OCCO2 (configuration not stated)
GI50 (SK-MEL-28): 51.7 nM
GI50 (CCRF-CEM): 31.3 nM
GI50 (A498): 23.1 nM
EC (Paracentrotus lividus [1]): 500 nM
GI50 (LOX IMVI): 48.5 nM
GI50 (HCC 2998): 75.7 nM
GI50 (MCF7): 32.9 nM
GI50 (COLO 205): 30.7 nM
GI50 (SW-620): 36.2 nM
GI50 (SNB-19): 50.4 nM
GI50 (NCI-H23): 38.2 nM
GI50 (HCT-15): 47.5 nM
Activity (Paracentrotus lividus [2]): inactive
GI50 (OVCAR-5): 126 nM
GI50 (NCI/ADR-RES): 23.5 nM
GI50 (OVCAR-4): 236 nM
GI50 (BT-549): 131 nM
EC (Paracentrotus lividus [3]): 10 nM
GI50 (ACHN): 171 nM
GI50 (RPMI-8226): 41 nM
GI50 (U-251): 85.1 nM
GI50 (SK-MEL-2): 48.3 nM
GI50 (HCT-116): 48.3 nM
GI50 (SN12C): 54 nM
GI50 (SF-295): 31.5 nM
GI50 (HL-60(TB)): 23.2 nM
GI50 (SF-539): 29.3 nM
GI50 (SR): 32.8 nM
GI50 (UO-31): 71.3 nM
GI50 (SK-OV-3): 33.3 nM
Activity (Paracentrotus lividus [4]): inactive
GI50 (NCI-H522): 37.3 nM
GI50 (MOLT-4): 81.7 nM
GI50 (MDA-MB-231): 110 nM
GI50 (A549): 52.3 nM
GI50 (PC-3): 46.9 nM
GI50 (M14): 52.2 nM
GI50 (UACC-62): 39.2 nM
GI50 (CAKI-1): 36.3 nM
GI50 (OVCAR-8): 49.5 nM
GI50 (786-0): 61.4 nM
EC (Paracentrotus lividus [5]): 50 nM
Activity (Paracentrotus lividus [6]): inactive
GI50 (EKVX): 68.2 nM
GI50 (NCI-H226): 71.2 nM
GI50 (KM12): 42.7 nM
GI50 (SF-268): 85.1 nM
GI50 (IGROV-1): 86 nM
GI50 (MDA-MB-468): 23.1 nM
GI50 (RXF 393): 18.7 nM
GI50 (MDA-MB-435): 19.7 nM
GI50 (NCI-H322M): 47.4 nM
GI50 (DU-145): 51.9 nM
GI50 [7]: 30.8 nM
GI50 (HT-29): 38.4 nM
GI50 (SNB-75): 33.7 nM
GI50 (TK-10): 36500 nM
GI50 (NCI-H460): > 100000 nM
GI50 (HOP-92): 41.6 nM
GI50 (OVCAR-3): 26.2 nM
GI50 (SK-MEL-5): 32.9 nM

COc1cc([C@H]2C3=C(COC3=O)Nc3cc4c(cc32)OCO4)cc(OC)c1OC
Activity (Paracentrotus lividus [2]): inactive
Activity (Paracentrotus lividus [4]): inactive
Activity (Paracentrotus lividus [6]): inactive
